According to ChEMBL document CHEMBL4340516, “Synthesis and antitumor activity of novel steroidal imidazolium salt derivatives” (Eur J Med Chem, 2019):

Columns and labels:
[1] = tested on: MCF7; test: Antiproliferative activity against human MCF7 cells assessed as reduction in cell viability incubated for 48 hrs by MTS assay; assay type: functional, cell-based; conditions: MCF7, 48 h
[2] = tested on: SMMC-7721; test: Potency index, ratio of DDP IC50 to compound IC50 for human SMMC7721 cells; assay type: functional
[3] = tested on: SW480; test: Antiproliferative activity against human SW480 cells assessed as reduction in cell viability incubated for 48 hrs by MTS assay; assay type: functional, cell-based; conditions: SW480, 48 h
[4] = tested on: SMMC-7721; test: Antiproliferative activity against human SMMC7721 cells assessed as reduction in cell viability incubated for 48 hrs by MTS assay; assay type: functional, cell-based; conditions: SMMC-7721, 48 h
[5] = tested on: HL-60; test: Antiproliferative activity against human HL60 cells assessed as reduction in cell viability incubated for 48 hrs by MTS assay; assay type: functional, cell-based; conditions: HL-60, 48 h
[6] = tested on: A549; test: Antiproliferative activity against human A549 cells assessed as reduction in cell viability incubated for 48 hrs by MTS assay; assay type: functional, cell-based; conditions: A549, 48 h

| Structure (SMILES) | IC50 [1] [µM] | Ratio IC50 [2] | IC50 [3] [µM] | IC50 [4] [nM] | IC50 [5] [nM] | IC50 [6] [µM] |
| --- | --- | --- | --- | --- | --- | --- |
| C[C@@H]1CC[C@@]2(OC1)O[C@H]1C[C@H]3[C@@H]4CC=C5C[C@H](n6c[n+](Cc7ccccc7Br)c7ccccc76)CC[C@]5(C)[C@H]4CC[C@]3(C)[C@H]1[C@@H]2C.[Br-] | 2.14 | 54 | 2.1 | 210 | 340 | 4.47 |
| COc1ccc(C(=O)C[n+]2ccn([C@@H]3CC[C@@]4(C)C(=CC[C@H]5[C@@H]6CC[C@H]([C@H](C)CCCC(C)C)[C@@]6(C)CC[C@@H]54)C3)c2)cc1 | 5.25 |  | 4.87 | 2900 | 6000 | 13.2 |
| C[C@]12CC[C@H]3[C@@H](CC=C4C[C@@H](O)CC[C@@]43C)[C@@H]1CC[C@@H]2n1cc[n+](Cc2ccc3ccccc3c2)c1 | 5.08 |  | 6.47 | 4410 | 2680 | 7.87 |
| C[C@@H]1CC[C@@]2(OC1)O[C@H]1C[C@H]3[C@@H]4CC=C5C[C@H](n6cc[n+](Cc7ccccc7Br)c6)CC[C@]5(C)[C@H]4CC[C@]3(C)[C@H]1[C@@H]2C | 1.41 |  | 1.66 | 950 | 430 | 1.22 |
| CC(C)CCC[C@@H](C)[C@H]1CC[C@H]2[C@@H]3CC=C4C[C@H](n5cc[n+](Cc6ccccc6Br)c5)CC[C@]4(C)[C@H]3CC[C@]12C | 6.02 |  | 8.32 | 940 | 1590 | 7.36 |
| CC(=O)O[C@H]1CC[C@@]2(C)C(=CC[C@H]3[C@@H]4CC[C@H](n5cc[n+](CC(=O)c6cccc(Br)c6)c5)[C@@]4(C)CC[C@@H]32)C1 | 4.88 |  | 7.26 | 5470 | 4350 | 7.2 |
| COc1ccc(C(=O)C[n+]2ccn([C@H]3C[C@H]4[C@@H]5C[C@@H]6O[C@]7(CC[C@@H](C)CO7)[C@@H](C)[C@@H]6[C@@]5(C)CC[C@@H]4[C@@]4(C)CC[C@@H]5C[C@]534)c2)cc1 | 4.49 |  | 7.03 | 7320 | 1250 | 7.18 |
| COc1ccc(C(=O)C[n+]2cn([C@@H]3CC[C@@]4(C)C(=CC[C@H]5[C@@H]6C[C@@H]7O[C@]8(CC[C@@H](C)CO8)[C@@H](C)[C@@H]7[C@@]6(C)CC[C@@H]54)C3)c3ccccc32)cc1 | 2.11 |  | 2.55 | 1450 | 1220 | 2.45 |
| COc1ccc(C(=O)C[n+]2cn([C@@H]3CC[C@@]4(C)C(=CC[C@H]5[C@@H]6C[C@@H]7O[C@]8(CC[C@@H](C)CO8)[C@@H](C)[C@@H]7[C@@]6(C)CC[C@@H]54)C3)c3cc(C)c(C)cc32)cc1 | 2.31 |  | 2.01 | 440 | 740 | 5.02 |
| CC(C)CCC[C@@H](C)[C@H]1CC[C@H]2[C@@H]3CC=C4C[C@@H](n5cc[n+](Cc6ccccc6Br)c5)CC[C@]4(C)[C@H]3CC[C@]12C | 7.62 |  | 7.75 | 1440 | 2350 | 8.05 |
| CC(C)CCC[C@@H](C)[C@H]1CC[C@H]2[C@@H]3CC=C4C[C@H](n5ccnc5)CC[C@]4(C)[C@H]3CC[C@]12C | > 20 |  | > 20 | > 20000 | > 20000 | > 20 |
| COc1ccc(C(=O)C[n+]2ccn([C@@H]3CC[C@@]4(C)C(=CC[C@H]5[C@@H]6C[C@@H]7O[C@]8(CC[C@@H](C)CO8)[C@@H](C)[C@@H]7[C@@]6(C)CC[C@@H]54)C3)c2)cc1 | 1.47 |  | 2.59 | 1510 | 1250 | 1.94 |
| CC(C)CCC[C@@H](C)[C@H]1CC[C@H]2[C@@H]3C[C@H](n4cc[n+](Cc5ccc6ccccc6c5)c4)[C@]45C[C@H]4CC[C@]5(C)[C@H]3CC[C@]12C | 8.04 |  | 7.48 | 1040 | 1640 | 7.67 |
| Cc1cc2ncn([C@@H]3CC[C@@]4(C)C(=CC[C@H]5[C@@H]6CC[C@H]([C@H](C)CCCC(C)C)[C@@]6(C)CC[C@@H]54)C3)c2cc1C | > 20 |  | > 20 | > 20000 | 180 | > 20 |
| COc1ccc(C(=O)C[n+]2ccn([C@H]3CC[C@H]4[C@@H]5CC=C6C[C@@H](O)CC[C@]6(C)[C@H]5CC[C@]34C)c2)cc1 | > 20 |  | > 20 | > 20000 | > 20000 | > 20 |
| CC(=O)O[C@H]1CC[C@@]2(C)C(=CC[C@H]3[C@@H]4CC[C@H](n5cc[n+](Cc6ccc7ccccc7c6)c5)[C@@]4(C)CC[C@@H]32)C1 | 2.53 |  | 5.64 | 2450 | 1220 | 4.74 |
| C[C@]12CC[C@H]3[C@@H](CC=C4C[C@@H](O)CC[C@@]43C)[C@@H]1CC[C@@H]2n1cc[n+](CC(=O)c2ccc3ccccc3c2)c1 | 4.38 |  | 5.59 | 3500 | 2000 | 9.69 |
| Cc1cc2c(cc1C)[n+](CC(=O)c1ccc3ccccc3c1)cn2[C@@H]1CC[C@@]2(C)C(=CC[C@H]3[C@@H]4C[C@@H]5O[C@]6(CC[C@@H](C)CO6)[C@@H](C)[C@@H]5[C@@]4(C)CC[C@@H]32)C1 | 3.05 |  | 3.1 | 570 | 450 | 5.53 |
| CC(C)CCC[C@@H](C)[C@H]1CC[C@H]2[C@@H]3C[C@H](n4cc[n+](CC(=O)c5ccc6ccccc6c5)c4)[C@]45C[C@H]4CC[C@]5(C)[C@H]3CC[C@]12C | 8 |  | 6.25 | 1230 | 2410 | 8.53 |
| COc1ccc(C(=O)C[n+]2ccn([C@H]3C[C@H]4[C@@H]5CC[C@H]([C@H](C)CCCC(C)C)[C@@]5(C)CC[C@@H]4[C@@]4(C)CC[C@@H]5C[C@]534)c2)cc1 | 6.54 |  | 7.18 | 1100 | 1520 | 6.68 |
| Cc1cc2c(cc1C)[n+](CC(=O)c1cccc(Br)c1)cn2[C@@H]1CC[C@@]2(C)C(=CC[C@H]3[C@@H]4C[C@@H]5O[C@]6(CC[C@@H](C)CO6)[C@@H](C)[C@@H]5[C@@]4(C)CC[C@@H]32)C1 | 2.78 |  | 2.22 | 1390 | 980 | 7.15 |
| C[C@@H]1CC[C@@]2(OC1)O[C@H]1C[C@H]3[C@@H]4C[C@H](n5ccnc5)[C@]56C[C@H]5CC[C@]6(C)[C@H]4CC[C@]3(C)[C@H]1[C@@H]2C | 19.7 |  | > 20 | 10000 | 8330 | 10.3 |
| Cc1cc2c(cc1C)[n+](Cc1ccccc1Br)cn2[C@@H]1CC[C@@]2(C)C(=CC[C@H]3[C@@H]4CC[C@H]([C@H](C)CCCC(C)C)[C@@]4(C)CC[C@@H]32)C1 | 14.2 |  | 13.2 | 1810 | 6960 | 8.44 |
| C[C@@H]1CC[C@@]2(OC1)O[C@H]1C[C@H]3[C@@H]4CC=C5C[C@H](n6cc[n+](CC(=O)c7ccccc7)c6)CC[C@]5(C)[C@H]4CC[C@]3(C)[C@H]1[C@@H]2C | 5.18 |  | 8.18 | 7150 | 1090 | 7.3 |
| Cc1cc2nc[nH]c2cc1C [DIMEDAZOL] | > 20 |  | > 20 | > 20000 | > 20000 | > 20 |
